According to BindingDB's records for doi:10.1021/jm800588x (Eberhard Karls University Tuebingen, 2008):

target: T1, Polyunsaturated fatty acid 5-lipoxygenase (Homo sapiens, UniProt P09917); test: Determination of 5-LO Product Formation in Intact Cells (EC50/IC50); conditions: pH 7.4; 37 °C
T1 sequence (P09917 whole entry): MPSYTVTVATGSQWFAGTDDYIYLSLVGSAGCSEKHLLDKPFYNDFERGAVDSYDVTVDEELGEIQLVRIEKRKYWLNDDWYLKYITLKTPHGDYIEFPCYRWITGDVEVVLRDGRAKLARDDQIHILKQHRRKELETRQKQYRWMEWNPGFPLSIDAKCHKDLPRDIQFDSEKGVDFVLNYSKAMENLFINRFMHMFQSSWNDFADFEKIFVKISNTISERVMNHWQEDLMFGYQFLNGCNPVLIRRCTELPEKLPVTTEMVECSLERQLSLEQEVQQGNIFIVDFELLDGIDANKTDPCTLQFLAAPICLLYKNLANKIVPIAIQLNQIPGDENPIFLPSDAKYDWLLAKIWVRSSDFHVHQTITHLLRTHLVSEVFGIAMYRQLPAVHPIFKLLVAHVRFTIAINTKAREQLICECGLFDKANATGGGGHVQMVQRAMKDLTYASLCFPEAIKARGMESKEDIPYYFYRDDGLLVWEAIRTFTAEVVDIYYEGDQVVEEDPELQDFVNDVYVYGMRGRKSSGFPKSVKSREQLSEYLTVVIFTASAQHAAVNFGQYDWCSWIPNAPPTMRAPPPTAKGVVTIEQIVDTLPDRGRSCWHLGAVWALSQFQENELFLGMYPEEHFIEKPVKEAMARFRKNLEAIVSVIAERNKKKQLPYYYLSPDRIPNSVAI
Method: For assays of intact cells, 5000,000 freshly isolated PMNL cells were resuspended in PGC buffer. After preincubation with the test compounds for 15 min at RT, 5-LO product formation was started by addition of ionophore A23187 plus arachidonic acid. Formed 5-LO metabolites were extracted and analyzed by HPLC. 5-LO product formation is expressed as ng of 5-LO products per 1000,000 cells, which includes LTB4 and its all-trans isomers, and 5(S)-hydro(pero)xy-6-trans- 8,11,14-cis-eicosatetraenoic acid.

Going from `CCCCCCC(Sc1nc(Cl)cc(Nc2cccc(C)c2C)n1)C(=O)O` (stereo not given) [2-({4-chloro-6-[(2,3-dimethylphenyl)amino]pyrimidin-2-yl}sulfanyl)octanoic acid] to `CCOC(=O)C(Sc1nc(Cl)cc(Nc2cccc(C)c2C)n1)c1ccccc1` (stereo not given) [ethyl 2-({4-chloro-6-[(2,3-dimethylphenyl)amino]pyrimidin-2-yl}sulfanyl)-2-phenylacetate], the EC50 falls from 4100 nM to 1800 nM (2.3-fold).

Going from `CCOC(=O)CSc1nc(Cl)cc(Nc2ccc3ncccc3c2)n1` [ethyl 2-{[4-chloro-6-(quinolin-6-ylamino)pyrimidin-2-yl]sulfanyl}acetate] to `CCCCC(Sc1nc(Cl)cc(Nc2ccc3ncccc3c2)n1)C(=O)OCC` (stereo not given) [ethyl 2-{[4-chloro-6-(quinolin-6-ylamino)pyrimidin-2-yl]sulfanyl}hexanoate], the EC50 falls from 2600 nM to 1100 nM (2.4-fold).

`O=C(O)CSc1nc(Cl)cc(Nc2cccc3c2CCC3)n1` [2-{[4-chloro-6-(2,3-dihydro-1H-inden-4-ylamino)pyrimidin-2-yl]sulfanyl}acetic acid] and `CCOC(=O)CSc1nc(Cl)cc(Nc2cccc3c2CCC3)n1` [ethyl 2-{[4-chloro-6-(2,3-dihydro-1H-inden-4-ylamino)pyrimidin-2-yl]sulfanyl}acetate] are within 1.5-fold of each other in EC50: 3900 nM for the first, 3200 nM for the second.

`CCCCCCC(Sc1nc(Cl)cc(Oc2ccc3ncccc3c2)n1)C(=O)OCC` (stereo not given) [ethyl 2-{[4-chloro-6-(quinolin-6-yloxy)pyrimidin-2-yl]sulfanyl}octanoate] and `CCOC(=O)C(Sc1nc(Cl)cc(Nc2ccc3ncccc3c2)n1)c1ccccc1` (stereo not given) [ethyl 2-{[4-chloro-6-(quinolin-6-ylamino)pyrimidin-2-yl]sulfanyl}-2-phenylacetate] are within 1.5-fold of each other in EC50: 1700 nM for the first, 1200 nM for the second.

target: T1, Polyunsaturated fatty acid 5-lipoxygenase; test: Determination of 5-LO Product Formation in Cell-Free Systems (IC50).; conditions: pH 7.4; 37 °C
Method: For determination of the activity of 5-LO in 100000g supernatants, aliquots of the supernatants were added to reaction mix, and were preincubated with the test compounds before arachidonic acid was added to start 5-LO product formation. Formed 5-LO metabolites were extracted and analyzed by HPLC. 5-LO product includes LTB4 and its all-trans isomers, and 5(S)-hydro(pero)xy-6-trans- 8,11,14-cis-eicosatetraenoic acid. IC50s are expressed as mean +/- SE, obtained from measurements at 4-5 different concentrations of test compounds, and determined using Graphpad Instat (Graphpad Software Inc., San Diego, CA). EC50/IC50 values were obtained from product formation in PMNL intact cells.

Compared with `CCCCCCC(Sc1nc(Cl)cc(NCc2ccc3ncccc3c2)n1)C(=O)OCC` (stereo not given) [ethyl 2-({4-chloro-6-[(quinolin-6-ylmethyl)amino]pyrimidin-2-yl}sulfanyl)octanoate], `CCCCCCC(Sc1nc(Cl)cc(Nc2ccc3ncccc3c2)n1)C(=O)OCC` (stereo not given) [ethyl 2-{[4-chloro-6-(quinolin-6-ylamino)pyrimidin-2-yl]sulfanyl}octanoate] is 1.9-fold lower in EC50: 37000 nM for the first, 19000 nM for the second.
